# Assay results: paper PMC10994248 (The Oncologist, 2024)
# Experiment: Phase I safety and tolerability (TEAEs, DLTs, MTD, DRDE) in patients with advanced solid tumors
# Format: in vivo, human
# Conditions: for DLT: Hypertension / DLT: Palmar-plantar erythrodysesthesia syndrome / DLT: Skin and subcutaneous tissue disorders / DLT: Vascular disorders / Subjects who had a dose-limiting toxicity: dose-determining set
# Description: This 2-part, open-label, phase I study was conducted at the MD Anderson Cancer Center in Texas, USA and the Cancer Hospital Chinese Academy of Medical Sciences in Beijing, China. […] This was followed by a dose-expansion phase, the primary objective of which was to confirm the safety and tolerability of tinengotinib at the DRDE. Secondary objectives were to characterize the pharmacokinetics and preliminary efficacy of tinengotinib.
# Dose escalation was guided by an adaptive Bayesian logistic regression model using the Escalation with Overdose Control principle.[6],[7] Study data (including DLTs, grade 2 adverse events during cycle 1, and pharmacokinetic data) were reviewed by the sponsor and trial investigators at each dose level and used to guide dose-escalation decisions. MTD was based on the Bayesian model, but with consideration given to available safety and tolerability data. DRDE was based on an evaluation of all available data (safety, clinical activity, and pharmacokinetics).
# After determination of the DRDE, the dose-expansion phase was opened to further characterize safety and pharmacokinetics, and to assess preliminary efficacy.
# Routine safety assessments of adverse events, laboratory tests (hematology, coagulation, biochemistry, and urinalysis), vital signs, and 12-lead electrocardiograms were performed. Adverse events were graded according to the National Cancer Institute Common Terminology Criteria for Adverse Events (CTCAE), version 5.0.
substance,measurement,setting,value
tinengotinib,DLT: Hypertension,1 mg (n=1),0 No. (%)
same,DLT: Palmar-plantar erythrodysesthesia syndrome,1 mg (n=1),0 No. (%)
same,DLT: Skin and subcutaneous tissue disorders,1 mg (n=1),0 No. (%)
same,DLT: Vascular disorders,1 mg (n=1),0 No. (%)
same,Subjects who had a dose-limiting toxicity,1 mg (n=1),0 No. (%)
same,DLT: Hypertension,3 mg (n=1),0 No. (%)
same,DLT: Palmar-plantar erythrodysesthesia syndrome,3 mg (n=1),0 No. (%)
same,DLT: Skin and subcutaneous tissue disorders,3 mg (n=1),0 No. (%)
same,DLT: Vascular disorders,3 mg (n=1),0 No. (%)
same,Subjects who had a dose-limiting toxicity,3 mg (n=1),0 No. (%)
same,DLT: Hypertension,5 mg (n=4),0 No. (%)
same,DLT: Palmar-plantar erythrodysesthesia syndrome,5 mg (n=4),0 No. (%)
same,DLT: Skin and subcutaneous tissue disorders,5 mg (n=4),0 No. (%)
same,DLT: Vascular disorders,5 mg (n=4),0 No. (%)
same,Subjects who had a dose-limiting toxicity,5 mg (n=4),0 No. (%)
same,DLT: Hypertension,8 mg (n=9),0 No. (%)
same,DLT: Palmar-plantar erythrodysesthesia syndrome,8 mg (n=9),1 (11.1) No. (%)
same,DLT: Skin and subcutaneous tissue disorders,8 mg (n=9),1 (11.1) No. (%)
same,DLT: Vascular disorders,8 mg (n=9),0 No. (%)
same,Subjects who had a dose-limiting toxicity,8 mg (n=9),1 (11.1) No. (%)
same,DLT: Hypertension,10 mg (n=3),0 No. (%)
same,DLT: Palmar-plantar erythrodysesthesia syndrome,10 mg (n=3),0 No. (%)
same,DLT: Skin and subcutaneous tissue disorders,10 mg (n=3),0 No. (%)
same,DLT: Vascular disorders,10 mg (n=3),0 No. (%)
same,Subjects who had a dose-limiting toxicity,10 mg (n=3),0 No. (%)
same,DLT: Hypertension,12 mg (n=9),0 No. (%)
same,DLT: Palmar-plantar erythrodysesthesia syndrome,12 mg (n=9),0 No. (%)
same,DLT: Skin and subcutaneous tissue disorders,12 mg (n=9),0 No. (%)
same,DLT: Vascular disorders,12 mg (n=9),0 No. (%)
same,Subjects who had a dose-limiting toxicity,12 mg (n=9),0 No. (%)
same,DLTs during the dose-expansion phase,12 mg dose,no other DLTs
same,DLT: Hypertension,15 mg (n=5),2 (40.0) No. (%)
same,DLT: Palmar-plantar erythrodysesthesia syndrome,15 mg (n=5),0 No. (%)
same,DLT: Skin and subcutaneous tissue disorders,15 mg (n=5),0 No. (%)
same,DLT: Vascular disorders,15 mg (n=5),2 (40.0) No. (%)
same,Subjects who had a dose-limiting toxicity,15 mg (n=5),2 (40.0) No. (%)
same,Dose modifications (dose adjustment or temporary interruption) because of drug-related TEAEs,48 patients,52.1%
same,Dose modifications because of drug-related hypertension,48 patients,22.9%
same,Drug-related grade 3 diarrhea,48 patients,2.1%
same,Drug-related grade 3 hypertension,48 patients,27.1%
same,Drug-related grade 3 nausea,48 patients,2.1%
same,Drug-related grade 3 palmar-plantar erythrodysesthesia syndrome,48 patients,2.1%
same,Drug-related grade 3 stomatitis,48 patients,4.2%
same,Drug-related grade 4 or 5 TEAEs,48 patients,No drug-related grade 4 or 5 TEAEs were reported
same,Patients with drug-related grade 3 TEAEs,48 patients,43.8%
same,Patients with drug-related serious adverse events,48 patients,14.6%
same,Patients with study drug-related TEAEs,"48 patients, all doses",85.4%
same,Drug-related TEAE diarrhea,"48 patients, any grade",33.3%
same,Drug-related TEAE hypertension,"48 patients, any grade",50.0%
same,Drug-related TEAE nausea,"48 patients, any grade",22.9%
same,Drug-related TEAE palmar-plantar erythrodysesthesia syndrome,"48 patients, any grade",29.2%
same,Drug-related TEAE stomatitis,"48 patients, any grade",29.2%
same,Drug-related TEAE vomiting,"48 patients, any grade",20.8%
same,Maximum tolerated dose (MTD),"Bayesian model, doses 1-15 mg once daily",not reached
same,DLT: Hypertension,Total (n=32),2 (6.3) No. (%)
same,DLT: Palmar-plantar erythrodysesthesia syndrome,Total (n=32),1 (3.1) No. (%)
same,DLT: Skin and subcutaneous tissue disorders,Total (n=32),1 (3.1) No. (%)
same,DLT: Vascular disorders,Total (n=32),2 (6.3) No. (%)
same,Subjects who had a dose-limiting toxicity,Total (n=32),3 (9.4) No. (%)
same,Risk of grade ≥3 hypertension predicted by exposure-response model,all doses,< 25%
same,Patients with AE,combined 12 mg (n=20),20 (100) n (%)
same,Patients with TEAE,combined 12 mg (n=20),20 (100) n (%)
same,Patients with TEAE leading to death,combined 12 mg (n=20),0 n (%)
same,Patients with TEAE leading to dose adjustment/temporary interruption,combined 12 mg (n=20),15 (75.0) n (%)
same,Patients with TEAE leading to study drug permanent discontinuation,combined 12 mg (n=20),3 (15.0) n (%)
same,Patients with grade ≥3 TEAE,combined 12 mg (n=20),14 (70.0) n (%)
same,Patients with study drug-related TEAE,combined 12 mg (n=20),19 (95.0) n (%)
same,Patients with study drug-related TEAE leading to dose adjustment/temporary interruption,combined 12 mg (n=20),13 (65.0) n (%)
same,Patients with study drug-related TEAE leading to study drug permanent discontinuation,combined 12 mg (n=20),1 (5.0) n (%)
same,Patients with study drug-related grade ≥3 TEAE,combined 12 mg (n=20),11 (55.0) n (%)
same,Patients with study drug-related treatment-emergent SAE,combined 12 mg (n=20),3 (15.0) n (%)
same,Patients with treatment-emergent SAE,combined 12 mg (n=20),9 (45.0) n (%)
same,Patients with AE,dose escalation 1 mg (n=1),1 (100) n (%)
same,Patients with TEAE,dose escalation 1 mg (n=1),1 (100) n (%)
same,Patients with TEAE leading to death,dose escalation 1 mg (n=1),0 n (%)
same,Patients with TEAE leading to dose adjustment/temporary interruption,dose escalation 1 mg (n=1),0 n (%)
same,Patients with TEAE leading to study drug permanent discontinuation,dose escalation 1 mg (n=1),0 n (%)
same,Patients with grade ≥3 TEAE,dose escalation 1 mg (n=1),0 n (%)
same,Patients with study drug-related TEAE,dose escalation 1 mg (n=1),0 n (%)
same,Patients with study drug-related TEAE leading to dose adjustment/temporary interruption,dose escalation 1 mg (n=1),0 n (%)
same,Patients with study drug-related TEAE leading to study drug permanent discontinuation,dose escalation 1 mg (n=1),0 n (%)
same,Patients with study drug-related grade ≥3 TEAE,dose escalation 1 mg (n=1),0 n (%)
same,Patients with study drug-related treatment-emergent SAE,dose escalation 1 mg (n=1),0 n (%)
same,Patients with treatment-emergent SAE,dose escalation 1 mg (n=1),0 n (%)
same,Patients with AE,dose escalation 3 mg (n=1),1 (100) n (%)
same,Patients with TEAE,dose escalation 3 mg (n=1),1 (100) n (%)
same,Patients with TEAE leading to death,dose escalation 3 mg (n=1),0 n (%)
same,Patients with TEAE leading to dose adjustment/temporary interruption,dose escalation 3 mg (n=1),0 n (%)
same,Patients with TEAE leading to study drug permanent discontinuation,dose escalation 3 mg (n=1),0 n (%)
same,Patients with grade ≥3 TEAE,dose escalation 3 mg (n=1),0 n (%)
same,Patients with study drug-related TEAE,dose escalation 3 mg (n=1),0 n (%)
same,Patients with study drug-related TEAE leading to dose adjustment/temporary interruption,dose escalation 3 mg (n=1),0 n (%)
same,Patients with study drug-related TEAE leading to study drug permanent discontinuation,dose escalation 3 mg (n=1),0 n (%)
same,Patients with study drug-related grade ≥3 TEAE,dose escalation 3 mg (n=1),0 n (%)
same,Patients with study drug-related treatment-emergent SAE,dose escalation 3 mg (n=1),0 n (%)
same,Patients with treatment-emergent SAE,dose escalation 3 mg (n=1),0 n (%)
same,Patients with AE,dose escalation 5 mg (n=4),4 (100) n (%)
same,Patients with TEAE,dose escalation 5 mg (n=4),4 (100) n (%)
same,Patients with TEAE leading to death,dose escalation 5 mg (n=4),0 n (%)
same,Patients with TEAE leading to dose adjustment/temporary interruption,dose escalation 5 mg (n=4),2 (50.0) n (%)
same,Patients with TEAE leading to study drug permanent discontinuation,dose escalation 5 mg (n=4),0 n (%)
same,Patients with grade ≥3 TEAE,dose escalation 5 mg (n=4),1 (25.0) n (%)
same,Patients with study drug-related TEAE,dose escalation 5 mg (n=4),3 (75.0) n (%)
same,Patients with study drug-related TEAE leading to dose adjustment/temporary interruption,dose escalation 5 mg (n=4),1 (25.0) n (%)
same,Patients with study drug-related TEAE leading to study drug permanent discontinuation,dose escalation 5 mg (n=4),0 n (%)
same,Patients with study drug-related grade ≥3 TEAE,dose escalation 5 mg (n=4),1 (25.0) n (%)
same,Patients with study drug-related treatment-emergent SAE,dose escalation 5 mg (n=4),0 n (%)
same,Patients with treatment-emergent SAE,dose escalation 5 mg (n=4),0 n (%)
same,Patients with AE,dose escalation 8 mg (n=10),9 (90.0) n (%)
same,Patients with TEAE,dose escalation 8 mg (n=10),9 (90.0) n (%)
same,Patients with TEAE leading to death,dose escalation 8 mg (n=10),0 n (%)
same,Patients with TEAE leading to dose adjustment/temporary interruption,dose escalation 8 mg (n=10),5 (50.0) n (%)
same,Patients with TEAE leading to study drug permanent discontinuation,dose escalation 8 mg (n=10),2 (20.0) n (%)
same,Patients with grade ≥3 TEAE,dose escalation 8 mg (n=10),6 (60.0) n (%)
same,Patients with study drug-related TEAE,dose escalation 8 mg (n=10),8 (80.0) n (%)
same,Patients with study drug-related TEAE leading to dose adjustment/temporary interruption,dose escalation 8 mg (n=10),5 (50.0) n (%)
same,Patients with study drug-related TEAE leading to study drug permanent discontinuation,dose escalation 8 mg (n=10),1 (10.0) n (%)
same,Patients with study drug-related grade ≥3 TEAE,dose escalation 8 mg (n=10),4 (40.0) n (%)
same,Patients with study drug-related treatment-emergent SAE,dose escalation 8 mg (n=10),3 (30.0) n (%)
same,Patients with treatment-emergent SAE,dose escalation 8 mg (n=10),5 (50.0) n (%)
same,Patients with AE,dose escalation 10 mg (n=6),6 (100) n (%)
same,Patients with TEAE,dose escalation 10 mg (n=6),6 (100) n (%)
same,Patients with TEAE leading to death,dose escalation 10 mg (n=6),0 n (%)
same,Patients with TEAE leading to dose adjustment/temporary interruption,dose escalation 10 mg (n=6),5 (83.3) n (%)
same,Patients with TEAE leading to study drug permanent discontinuation,dose escalation 10 mg (n=6),4 (66.7) n (%)
same,Patients with grade ≥3 TEAE,dose escalation 10 mg (n=6),5 (83.3) n (%)
same,Patients with study drug-related TEAE,dose escalation 10 mg (n=6),6 (100) n (%)
same,Patients with study drug-related TEAE leading to dose adjustment/temporary interruption,dose escalation 10 mg (n=6),3 (50.0) n (%)
same,Patients with study drug-related TEAE leading to study drug permanent discontinuation,dose escalation 10 mg (n=6),4 (66.7) n (%)
same,Patients with study drug-related grade ≥3 TEAE,dose escalation 10 mg (n=6),2 (33.3) n (%)
same,Patients with study drug-related treatment-emergent SAE,dose escalation 10 mg (n=6),1 (16.7) n (%)
same,Patients with treatment-emergent SAE,dose escalation 10 mg (n=6),4 (66.7) n (%)
same,Patients with AE,dose escalation 12 mg (n=12),12 (100) n (%)
same,Patients with TEAE,dose escalation 12 mg (n=12),12 (100) n (%)
same,Patients with TEAE leading to death,dose escalation 12 mg (n=12),0 n (%)
same,Patients with TEAE leading to dose adjustment/temporary interruption,dose escalation 12 mg (n=12),8 (66.7) n (%)
same,Patients with TEAE leading to study drug permanent discontinuation,dose escalation 12 mg (n=12),3 (25.0) n (%)
same,Patients with grade ≥3 TEAE,dose escalation 12 mg (n=12),9 (75.0) n (%)
same,Patients with study drug-related TEAE,dose escalation 12 mg (n=12),11 (91.7) n (%)
same,Patients with study drug-related TEAE leading to dose adjustment/temporary interruption,dose escalation 12 mg (n=12),6 (50.0) n (%)
